The results in this text go back to paper PMC10137179, “Assessment of Covalently Binding Warhead Compounds in the Validation of the Cytomegalovirus Nuclear Egress Complex as an Antiviral Target” (Cells, 2023).

The test system of series [1] is HCMV AD169-GFP. In words: microbe, parasite or virus in culture. It counts as cell-based, human cytomegalovirus (HCMV). To be noted: for SI: selectivity index CC50/EC50, AD169-GFP. The procedure:
(§1) Cytotoxicity of the analyzed compounds was determined by the Neutral Red dye uptake assay. A total of 1.35 × 10^5 HFFs per well were seeded in 96-well plates 1 d prior to analysis, cultivated overnight until cells were confluent and then incubated with compounds for 7 days. The assay was performed as described previously using 40 μg/mL Neutral Red (Sigma Aldrich). The quantity of dye incorporation was determined using the Victor X4 microplate reader (PerkinElmer, Waltham, MA, USA) by fluorescence measurement at 560/630 nm for excitation/emission, respectively. To assess antiviral activity of compounds, HFFs seeded in 96-well plates (1.35 × 10^5 HFFs per well) were infected with HCMV AD169-GFP or TB40-IE2-YFP to reach 25–50% infected cells at 7 days post-infection (d p.i.). After incubation with the infectious inoculum for 1.5 h at 37 °C, compounds were added in serial dilutions. At 7 d p.i., cells were fixed for 10 min at room temperature using 10% formalin. Finally, cells were washed once with PBS followed by automated fluorescence quantitation.
Seeking for a novel group of potential antiviral agents, small molecules with covalent protein-binding activity were investigated. These small molecules, originally developed as kinase inhibitors, carry a so-called warhead moiety as an important functional group, such as the prototype afatinib (Figure 1A, red circle). In this study, a series of newly generated warhead compounds (most of which are the property of B.K./Lead Discovery Center, Dortmund, Germany) were used for an evaluation of putative antiviral and core NEC-inhibitory properties. In a first step, the antiviral activity of warheads was analyzed against HCMV TB40-IE2-YFP (Figure 1B) and AD169-GFP (Figure 1C). To this end, HFFs were infected with either of the two viral strains before the GFP or YFP reporter signals were measured at 7 d p.i. (in parallel, putative compound cytotoxicity was determined by Neutral Red assay). The HCMVs AD169-GFP and TB40-IE2-YFP, based on BAC-derived recombinants of the laboratory strains AD169 and TB40, respectively, were both propagated on HFFs, and the produced stocks were then used as two reporter viruses for the assessement of antiviral drug activity. While strain AD169 is mainly restricted in its tropism to fibroblasts, TB40 tropism can be extended to fibroblasts and epithelial and endothelial cells. Here, the use of two strains was intended to illustrate the assumption that antiviral activity of these warhead compounds may be directed to conserved viral target proteins, thus pointing out a minor impact of strains.
(A) Chemical structure of a clinically approved prototype of covalently binding warhead inhibitors, […], afatinib/Gilotrif®. The red circle identifies a functionally active α-, β-unsaturated carbonyl group. (B) At 7 d p.i., compounds were analyzed for their cytotoxicity (orange) and antiviral activity (blue) during HCMV infection, using TB40-IE2-YFP as a reporter virus. Cell viability was assessed through Neutral Red staining of uninfected cells. Measurements were performed in quadruplicate (YFP fluorometry) or triplicate (Neutral Red assay), and standard deviations of mean values are given; EC50, CC50 and SI values are indicated accordingly. (C) In a parallel series of analyses, HCMV AD169-GFP was used as another reporter virus representing a second viral strain. […] HCMV AD169-GFP-infected HFFs were treated with 0.1 µM to 50 µM of the compounds (in parallel Neutral Red assay, 0.1 µM to 100 µM), before the signal assessments were performed at 7 d p.i.

A short description of series [2]: in vitro. To be noted: human. It counts as cell-based, human. The procedure: as §1
Series [3] deals with HCMV pUL53 nuclear rim localization. Put plainly: Confocal imaging of pUL53 localization in HCMV AD169-infected HFFs. It counts as cell-based. The procedure: HFF or HFF-UL50 cells, either Dox-induced or uninduced, were seeded in 6-well plates with a density of 2 × 10^5 cells per well, grown on coverslips and infected with HCMV AD169 or AD169 ∆UL50-ΣUL53. For infection experiments with the recombinant virus, different Shield-1 and Dox conditions were analyzed. Antivirals were added post-infection as described for the experiments. For transfection experiments, HeLa cells were seeded on coverslips in 6-well plates with a density of 3.25 × 10^5 cells per well for cotransfection with the indicated NEC expression plasmids (HSV-1 HA-UL34 + Flag-UL31, HCMV pUL50-HA + pUL53-Flag and EBV HA-BFRF1 + Flag-BFLF2). At indicated time points after virus infection, or 3 days post-transfection, cells were fixed, applied for IF staining as described previously and analyzed using a TCS SP5 confocal laser-scanning microscope with Leica LAS AF software (Leica Microsystems, Wetzlar, Germany). […] The device features a Leica photomultiplier tube (PMT) and a hybrid detector (HyD). Images were further processed using Photoshop CS5 (Adobe Inc., San José, CA, USA). Primary and secondary antibodies used for staining were mAb-UL53.01 (kindly provided by S. Jonjic and T. Lenac Rovis, Rijeka, Croatia), mAb-lamin A/C (ab108595, Abcam, Cambridge, UK), mAb-HA (Clone 7, H9658, Sigma-Aldrich, St. Louis, MO, USA), pAb-Flag (F7425, Sigma-Aldrich, St. Louis, MO, USA), anti-mouse Alexa 555 (A21422, Thermo Fisher Scientific, Waltham, MA, USA) and anti-rabbit Alexa 488 (A11034, Thermo Fisher Scientific, Waltham, MA, USA). Microscopic counting was performed for quantitation of colocalization patterns of two different proteins, as achieved by counting 50 cells per biological triplicate.

The subject of series [4] is HCMV TB40-IE2-YFP. Put plainly: microbe, parasite or virus in culture. It counts as cell-based, human cytomegalovirus (HCMV). Here is the method: Cytotoxicity of the analyzed compounds was determined by the Neutral Red dye uptake assay. A total of 1.35 × 10^5 HFFs per well were seeded in 96-well plates 1 d prior to analysis, cultivated overnight until cells were confluent and then incubated with compounds for 7 days. The assay was performed as described previously using 40 μg/mL Neutral Red (Sigma Aldrich). The quantity of dye incorporation was determined using the Victor X4 microplate reader (PerkinElmer, Waltham, MA, USA) by fluorescence measurement at 560/630 nm for excitation/emission, respectively. […] Finally, cells were washed once with PBS followed by automated fluorescence quantitation.
Seeking for a novel group of potential antiviral agents, small molecules with covalent protein-binding activity were investigated. […] In a first step, the antiviral activity of warheads was analyzed against HCMV TB40-IE2-YFP (Figure 1B) and AD169-GFP (Figure 1C). To this end, HFFs were infected with either of the two viral strains before the GFP or YFP reporter signals were measured at 7 d p.i. (in parallel, putative compound cytotoxicity was determined by Neutral Red assay). […]
(A) Chemical structure of a clinically approved prototype of covalently binding warhead inhibitors, LDC580, afatinib/Gilotrif®. […] Cell viability was assessed through Neutral Red staining of uninfected cells. […]

The test system of series [5] is HFFs. In words: in vitro. In kind it is cell-based, human. Here is the method: as §1
Series [6] addresses T1, pUL50–pUL53 interaction (LgBiT::UL53-Flag + SmBiT::UL50-HA) (Human cytomegalovirus, UniProt P16791).
T1 construct: expressed in transfected cells; host or cells: 293T
It counts as cell-based. To be noted: 293T cells, 5×, 1× or 0.2× anti-HCMV EC50 levels, full-length LgBiT::UL53-Flag.

Series [7] addresses T2, pUL50–pUL53 interaction (LgBiT::UL53(1–87)-Flag + SmBiT::UL50-HA) (Human cytomegalovirus, UniProt P16791).
T2 construct: expressed in transfected cells; host or cells: 293T
In kind it is cell-based. To be noted: 293T cells, 5×, 1× or 0.2× anti-HCMV EC50 levels, truncated LgBiT::UL53(1–87)-Flag.

Where [8] appears, read: AD169-GFP-infected HFFs, 7 d p.i., 0.1 µM to 50 µM.
Setting [9] is: Human betaherpesvirus 5, AD169, 168 h, clinically relevant warheads, 0.1 µM to 50 µM, AD169-GFP-infected HFFs, 7 d p.i.
The mark [10] stands for this setting: HFFs infected with HCMV AD169 (MOI 0.1), 5 d p.i.

Where two headings read alike, the source gives them in different places.

T1 sequence (P16791 whole entry): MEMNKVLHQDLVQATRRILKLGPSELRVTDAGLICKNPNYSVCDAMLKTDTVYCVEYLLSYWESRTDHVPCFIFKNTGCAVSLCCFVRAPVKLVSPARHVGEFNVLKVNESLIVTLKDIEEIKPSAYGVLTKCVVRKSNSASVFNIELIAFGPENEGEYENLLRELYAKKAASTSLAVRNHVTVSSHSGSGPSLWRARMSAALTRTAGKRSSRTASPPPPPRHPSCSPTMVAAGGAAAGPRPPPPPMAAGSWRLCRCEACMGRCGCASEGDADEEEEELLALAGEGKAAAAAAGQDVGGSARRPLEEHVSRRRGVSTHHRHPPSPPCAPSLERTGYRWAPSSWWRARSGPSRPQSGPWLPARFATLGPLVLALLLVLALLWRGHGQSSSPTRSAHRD
T2 sequence (P16791 whole entry): as above

A word on the EC50: it is the concentration that produces a half-maximal response. For orientation: CC50 means the concentration giving 50% cytotoxicity. Consider `COC(=O)[C@]12CCC(C)(C)C[C@H]1[C@H]1C(=O)C=C3[C@@]4(C)C=C(C#N)C(=O)C(C)(C)[C@@H]4CC[C@@]3(C)[C@]1(C)CC2` [CDDO-Me, 2-cyano-3,12-dioxooleana-1,9(11)-dien-28-oic acid methyl ester], for which the “antiviral activity (in words)” value in series [1] (setting [8]) is recorded as “no notable antiviral activity”. This compound also returned an EC50 in series [1] (setting [9]) of less than 0.4 µM. For the same compound, in series [2], the CC50 at 7 days is greater than 0.8 µM.
Regarding `CCOc1cc(/C=c2\sc3n(c2=O)C(c2ccccc2OC)C(C(C)=O)=C(C)N=3)ccc1O` (stereo not drawn) [LDC492], the “cells with partial or predominant dot-like localization of pUL53 within the nucleoplasm” value in series [3] (HCMV AD169 MOI 0.1, 5 d p.i., concentrations of partial-grade antiviral activity, 50 cells counted per biological triplicate) is “more than 50%”. Also, the EC50 was greater than 10 µM in series [4] (HFFs infected with HCMV TB40-IE2-YFP, 7 d p.i., YFP fluorometry, read-out: EC50) and 8.9 ± 6.6 µM in series [1] (HFFs infected with HCMV AD169-GFP, 7 d p.i., investigational LDC warheads, read-out: EC50). In series [5], this compound showed a CC50 greater than 10 µM.
Consider `CN(C)C/C=C/C(=O)Nc1cc2c(Nc3ccc(F)c(Cl)c3)ncnc2cc1O[C@H]1CCOC1` [LDC580, afatinib], for which the “pUL53 localization (in words)” value in series [3] (setting [10]) is reported as “no comparable effect”. The EC50 in series [4] (Human betaherpesvirus 5, 168 h) worked out at 0.8 µM; in series [1] (Human betaherpesvirus 5, AD169, 168 h, HFFs infected with HCMV AD169-GFP, 7 d p.i., investigational LDC warheads), 0.6 µM. In series [2] (CC50), the CC50 at 7 days was greater than 10 µM. In series [5] (human, 7 days), this compound registered a CC50 of roughly 9 µM.
As for `CC(C)Nc1nc2cc(Cl)c(Cl)cc2n1[C@H]1O[C@@H](CO)[C@H](O)[C@@H]1O` [MBV, maribavir], the “pUL53 localization (in words)” value in series [3] (setting [10]) is given as “predominant dot-like structures”. Moreover, the “intranucleoplasmic coaggregation of lamin A/C (in words)” value in series [3] (HFFs infected with HCMV AD169 (MOI 0.1), 5 d p.i., called preliminary) was “also visible”.
With `C=C1C(=O)O[C@@H]2C[C@@]3(C)CCC[C@H](C)C3=C[C@H]12` [alantolactone], the “inhibitory effect on NanoBiT interaction signal (in words)” value in series [6] and in series [7] was “very minor or no effects” each time. The EC50 in series [1] (setting [9]) is 3.2 ± 1.3 µM. In series [2], this compound gave a half-maximal cytotoxic concentration (CC50) at 7 days of 23 ± 5 µM.
As to `CCN(CC)C(=O)/C(C#N)=C/c1cc(O)c(O)c([N+](=O)[O-])c1` [entacapone], the “antiviral activity (in words)” value in series [1] (setting [8]) is on record as “no notable antiviral activity”. Further, the EC50 in series [1] (setting [9]) was greater than 50 µM. Besides, the SI entry in series [1] (clinically relevant warheads) was “inactive”. This compound also showed a CC50 at 7 days in series [2] (CC50) of 93 ± 4 µM.
With `CCOc1cc2ncc(C#N)c(Nc3ccc(OCc4ccccn4)c(Cl)c3)c2cc1NC(=O)/C=C/CN(C)C` [neratinib], the EC50 in series [1] (setting [9]) is 0.3 ± 0.1 µM. Further, the CC50 at 7 days in series [2] (CC50) was found to be 37 ± 1 µM.
For `C=CC(=O)Nc1cc(Nc2nccc(-c3cn(C)c4ccccc34)n2)c(OC)cc1N(C)CCN(C)C` [osimeritinib], the “inhibitory effect on NanoBiT interaction signal (in words)” value in series [6] and in series [7] was “very minor or no effects” throughout. In addition, the EC50 in series [1] (setting [9]) came out at 1 ± 0.8 µM. Besides, the CC50 at 7 days in series [2] (clinically relevant warheads, 0.1 µM to 100 µM, Neutral Red, uninfected HFFs, 7 d, read-out: CC50) was determined as 23 µM.
Take `C=C1C(=O)O[C@H]2[C@H]1CC/C(C)=C/CC[C@@]1(C)O[C@@H]21` [parthenolide]: the “antiviral activity (in words)” value in series [1] (setting [8]) is given as “no notable antiviral activity”. Also, the response in series [1] (setting [9]) was half-maximal at 6.7 ± 3.4 µM (EC50). The CC50 at 7 days in series [2] (CC50) came to 9 ± 0.4 µM.
Take `C=CC(=O)N1CCN(c2nc(=O)n(-c3c(C)ccnc3C(C)C)c3nc(-c4c(O)cccc4F)c(F)cc23)[C@@H](C)C1` [sotorasib]: the “antiviral activity (in words)” value in series [1] (setting [8]) is “no notable antiviral activity”. In addition, the EC50 in series [1] (setting [9]) was greater than 50 µM. Besides, the SI result in series [1] (clinically relevant warheads) was “inactive”. In series [2] (CC50), the CC50 at 7 days is 95 ± 12 µM.
As for `COC[C@H]1OC(=O)c2coc3c2[C@@]1(C)C1=C(C3=O)[C@@H]2CCC(=O)[C@@]2(C)C[C@H]1OC(C)=O` [wortmannin], in series [1] (setting [8]), the “antiviral activity (in words)” value was “no notable antiviral activity”. This compound also had an EC50 in series [1] (Human betaherpesvirus 5, AD169, 168 h) greater than 50 µM. Besides, the SI result in series [1] (clinically relevant warheads) was “inactive”. This compound registered a CC50 at 7 days in series [2] greater than 100 µM.
